{"source": "patent US10220112B2", "about": "“Cyclic antimicrobial pseudopeptides and uses thereof” (INSERM (INSTITUT NATIONAL DE LA SANTE ET DE LA RECHERCHE …, priority 2014, dated 2019)", "key": {"[1]": {"tested_on": "MRSA strain S. aureus N315", "test": "microbe, parasite or virus in culture", "conditions": "Staphylococcus aureus, read-out: MRSA MIC"}, "human erythrocytes": {"tested_on": "human erythrocytes", "test": "Lytic activity against human erythrocytes", "format": "cell-based", "conditions": "Table 2; for Human cells H50: maximal concentration 500 μM", "procedure": "Human blood was collected from EFS (‘Etablissement Francais du Sang’) in Rennes (France). […] After centrifugation, the absorbance of the supernatant was measured at 414 nm. Three wells were positive controls, where the RBC were mixed with water 1% Triton X-100, in these wells the totality of RBC were hemolyzed and the release of hemoglobin was considered to be 100%. Three wells were negative controls, where the RBC were mixed with PBS buffer, in these wells hemolysis was considered to be null. The percentage of hemolysis in each test well was calculated by comparing with controls. For each peptide, bloods from three different donors were tested."}, "[2]": {"tested_on": "VISA strain S. aureus Mu 50", "test": "microbe, parasite or virus in culture", "conditions": "Staphylococcus aureus, read-out: VISA MIC"}, "E. coli strain ML-35p": {"tested_on": "E. coli strain ML-35p", "test": "E. coli outer and inner membrane permeabilization assays (nitrocefin / ONPG)", "format": "cell-based, Escherichia coli", "procedure": "E. coli outer and inner membrane permeability was determined by using E. coli strain ML-35p, which is lactose permease deficient. Nitrocefin, β-lactam is excluded by the outer cell membrane but, if it can pass this barrier thanks to the action of an AMP, it is then cleaved by the β-lactamase localized within the periplasm. ONPG, passes through lac permease and is cleaved by the cytoplasmic β-galactosidase, however with the ML-35p E. coli strain, ONPG is excluded unless permeabilization is achieved. The permeabilization assays were carried out with 100 μL of bacteria in MH broth at A600 nm 0.1-0.2 (10^7 cfu/mL, density necessary to detect degradation products). […] ONPG was added to a 100 μg/ml final concentration and substrate cleavage was monitored by light absorption measurements at 420 nm. Polymixin B at 8 μM against 10^7 cfu/mL was used as positive control. Bacterial suspension in MH broth plus substrates was used as negative control (untreated cells)."}}}
{"compound": "CN[C@H](CC(C)C)C(=O)N[C@H]1C(=O)N[C@@H](CC(N)=O)C(=O)N[C@H]2C(=O)N[C@H]3C(=O)N[C@H](C(=O)N[C@H](C(=O)O)c4cc(O)cc(O)c4-c4cc3ccc4O)[C@H](O)c3ccc(c(Cl)c3)Oc3cc2cc(c3O[C@@H]2O[C@H](CO)[C@@H](O)[C@H](O)[C@H]2O[C@H]2C[C@](C)(N)[C@H](O)[C@H](C)O2)Oc2ccc(cc2Cl)[C@H]1O", "note": "[Vancomycin, reference compound]", "values": [{"measurement": "MIC", "setting": "[1]", "result": 32, "unit": "µM"}, {"measurement": "Human cells % hemolysis at 500 μM", "setting": "human erythrocytes", "result": 0.15, "unit": "%"}, {"measurement": "Human cells H50", "setting": "human erythrocytes", "result": "nd (not detectable at the maximal concentration tested (500 μM))"}, {"measurement": "MIC", "setting": "[2]", "result": 1, "unit": "µM"}]}
{"compound": "COc1cccc(OC)c1C(=O)N[C@@H]1C(=O)N2[C@@H]1SC(C)(C)[C@@H]2C(=O)O", "note": "[Meticillin, reference compound]", "values": [{"measurement": "Human cells % hemolysis at 500 μM", "setting": "human erythrocytes", "result": 0.12, "unit": "%"}, {"measurement": "Human cells H50", "setting": "human erythrocytes", "result": "nd (not detectable at the maximal concentration tested (500 μM))"}, {"measurement": "MIC", "setting": "[2]", "result": "> 500", "unit": "µM"}]}
{"compound": "polymixin B", "values": [{"measurement": "time to detection of the reporter, inner membrane", "setting": "E. coli strain ML-35p; ONPG, polymixin B 8 μM, peptides 6 μM and 12 μM", "result": 20, "unit": "min"}, {"measurement": "time to detection of the reporter, outer membrane", "setting": "E. coli strain ML-35p; nitrocefin, polymixin B at 8 μM", "result": 30, "unit": "s"}]}
